Measured values as given in patent US10513533B2, “Tunicamycin related compounds with anti-bacterial activity” (priority 2017, dated 2019).
Entries after “also recorded” stand apart in the source; their conditions may differ.

How the values were obtained:
Bacillus subtilis = test: agar diffusion-zone of inhibition assay; type: cell-based; details: for Zone of Clearing (cm) B. subtilis: Example 1, 0.5 μg spotted
Saccharomyces cerevisiae = test: agar diffusion-zone of inhibition assay; type: cell-based; details: for Zone of Clearing (cm) Yeast: Example 1, 0.5 μg spotted
[1] = tested on: AtchitIV5 N-glycosylation; test: Pichia-based protein N-glycosylation assay (SDS-PAGE); type: cell-based; details: Example 2, 20 μg/mL, added at methanol induction
B. subtilis strain MW10 = test: beta-lactam enhancement, broth dilution MIC with resazurin; details: for MIC of the beta-lactam without any tunicamycins or tunicamycin related compounds added: beta-lactam alone
[2] = tested on: cell wall teichoic acid (WTA) pathway; details: background, literature; cited from earlier work
[3] = tested on: Chinese hamster ovary (CHO) cells; test: cytotoxicity against mammalian cell line in culture; type: cell-based; details: FIG. 8A, 0.5 μg, 1.0 μg, 2.0 μg
From the text: Chinese hamster ovary (CHO) cells are chosen for this experiment because they have been used previously as a model for tunicamycin toxicity. See, e.g., Scocca and Krag, J. Biol. Chem., 265:20621-20626 (1990). A human cell line (MDA-MB-231 triple negative human breast cancer cells) are also used because their known susceptibility to tunicamycin. See, Banerjee, et al., Cancer Res. 71:2095 (2011). The protocols used are described in Duksin & Bornstein, Proc. Natl. Acad. Sci. (U.S.A.), 74:3433-3437 (1977).

For CC(=O)NC1C(O)[C@H](O)C(CO)O[C@@H]1OC1O[C@H](C[C@@H](O)C2O[C@@H](n3ccc(=O)[nH]c3=O)[C@H](O)[C@@H]2O)C(O)C(O)[C@H]1N (some centres unmarked) [Compound 1], the “Zone of Clearing (cm) B. subtilis” value (Bacillus subtilis) was 0 cm and the “Zone of Clearing (cm) Yeast” value (Saccharomyces cerevisiae) was 0 cm.
For CC(=O)NC1C(O)[C@H](O)[C@H](CO)O[C@@H]1O[C@@H]1O[C@H](C[C@@H](O)C2O[C@@H](n3ccc(=O)[nH]c3=O)[C@H](O)[C@@H]2O)C(O)C(O)[C@H]1NC(=O)/C=C/CCCCCCCCCC(C)C (some centres unmarked) [Compound 2], the “antimicrobial activity on Bacillus (in words)” value (Bacillus subtilis) was “same antimicrobial activity as the native tunicamycin”, the “Zone of Clearing (cm) B. subtilis” value (Bacillus subtilis) was 2.5 cm and the “toxicity / antimicrobial activity on S. cerevisiae (in words)” value (“toxicity / antimicrobial activity” for short) (Saccharomyces cerevisiae) was “same antimicrobial activity as the native tunicamycin”. The “Zone of Clearing (cm) Yeast” value (Saccharomyces cerevisiae) was 2.4 cm and the “inhibition of AtchitIV5 N-glycosylation (in words)” value [1] was “same effect as the naturally occurring tunicamycins”.
In the case of CC(=O)NC1C(O)[C@H](O)[C@H](CO)O[C@@H]1O[C@@H]1O[C@H](C[C@@H](O)C2O[C@@H](n3ccc(=O)[nH]c3=O)[C@H](O)[C@@H]2O)C(O)C(O)[C@H]1NC(=O)CCCCCCCCCCCC(C)C (some centres unmarked) [Compound 3], the “antimicrobial activity on Bacillus (in words)” value (Bacillus subtilis) is reported as “comparable response”, the “Zone of Clearing (cm) B. subtilis” value (Bacillus subtilis) is reported as 2.3 cm and the “toxicity / antimicrobial activity” value (Saccharomyces cerevisiae) is reported as “considerably less toxic; also recorded: reduced toxicity”. The “Zone of Clearing (cm) Yeast” value (Saccharomyces cerevisiae) was 0.2 cm and the “inhibition of AtchitIV5 N-glycosylation (in words)” value [1] was “less effective inhibitor”.
With CC(C)CCCCCCCCC/C=C/C(=O)N[C@@H]1C(O)C(O)[C@@H](C[C@@H](O)C2O[C@@H](n3ccc(=O)[nH]c3=O)[C@H](O)[C@@H]2O)O[C@H]1O[C@H]1O[C@@H](CO)[C@@H](O)C(O)C1N=[N+]=[N-] (some centres unmarked) [Compound 4] the “antimicrobial activity on Bacillus (in words)” value (Bacillus subtilis) was “almost equivalent to the native tunicamycin”, the “Zone of Clearing (cm) B. subtilis” value (Bacillus subtilis) was 1.6 cm and the “toxicity / antimicrobial activity” value (Saccharomyces cerevisiae) was “essentially non-toxic; also recorded: reduced toxicity”. The “Zone of Clearing (cm) Yeast” value (Saccharomyces cerevisiae) was 0 cm.
In the case of [N-]=[N+]=NC1C(O)[C@H](O)C(CO)O[C@@H]1OC1O[C@H](C[C@@H](O)C2O[C@@H](n3ccc(=O)[nH]c3=O)[C@H](O)[C@@H]2O)C(O)C(O)[C@H]1N1C(=O)c2ccccc2C1=O (some centres unmarked) [Compound 5], the “Zone of Clearing (cm) B. subtilis” value (Bacillus subtilis) is reported as 0 cm and the “Zone of Clearing (cm) Yeast” value (Saccharomyces cerevisiae) is reported as 0 cm.
For COc1ccc(O[C@@H]2OC([C@H](O)C[C@H]3OC(O[C@H]4OC(CO)[C@@H](O)C(O)C4NC(C)=O)[C@H](N)C(O)C3O)[C@@H](O)[C@H]2O)cc1 (some centres unmarked) [Compound 6], the “antimicrobial activity on Bacillus (in words)” value (Bacillus subtilis) was “no antimicrobial biological activity”, the “Zone of Clearing (cm) B. subtilis” value (Bacillus subtilis) was 0 cm and the “toxicity / antimicrobial activity” value (Saccharomyces cerevisiae) was “no antimicrobial biological activity”. The “Zone of Clearing (cm) Yeast” value (Saccharomyces cerevisiae) was 0 cm.
In the case of COc1ccc(O[C@@H]2OC([C@H](O)C[C@H]3O[C@@H](O[C@H]4O[C@@H](CO)[C@@H](O)C(O)C4NC(C)=O)[C@H](NC(=O)/C=C/CCCCCCCCCC(C)C)C(O)C3O)[C@@H](O)[C@H]2O)cc1 (some centres unmarked) [Compound 7], the “antimicrobial activity on Bacillus (in words)” value (Bacillus subtilis) is reported as “no antimicrobial biological activity”, the “Zone of Clearing (cm) B. subtilis” value (Bacillus subtilis) is reported as 0 cm and the “toxicity / antimicrobial activity” value (Saccharomyces cerevisiae) is reported as “no antimicrobial biological activity”. The “Zone of Clearing (cm) Yeast” value (Saccharomyces cerevisiae) was 0 cm.
In the case of CC(=O)NC1C(O)[C@H](O)C(CO)O[C@@H]1OC1O[C@H](C[C@@H](O)C2O[C@@H](n3ccc(=O)[nH]c3=O)[C@H](O)[C@@H]2O)C(O)C(O)[C@H]1NC(C)=O (some centres unmarked) [Compound 9], the “Zone of Clearing (cm) B. subtilis” value (Bacillus subtilis) is reported as 0 cm and the “Zone of Clearing (cm) Yeast” value (Saccharomyces cerevisiae) is reported as 0 cm.
In the case of CC(=O)NC1C(O)[C@H](O)[C@H](CO)O[C@@H]1O[C@@H]1O[C@H](C[C@@H](O)C2O[C@@H](n3cnc4c(N)ncnc43)[C@H](O)[C@@H]2O)C(O)C(O)[C@H]1NC(=O)/C=C/CCCCCCCCCC(C)C (some centres unmarked) [Compound 10], the “antimicrobial activity on Bacillus (in words)” value (Bacillus subtilis) is reported as “no antimicrobial biological activity”, the “Zone of Clearing (cm) B. subtilis” value (Bacillus subtilis) is reported as 0 cm and the “toxicity / antimicrobial activity” value (Saccharomyces cerevisiae) is reported as “no antimicrobial biological activity”. The “Zone of Clearing (cm) Yeast” value (Saccharomyces cerevisiae) was 0 cm.
With COc1cccc(OC)c1C(=O)N[C@@H]1C(=O)N2[C@@H]1SC(C)(C)[C@@H]2C(=O)O [methicillin] the “MIC of the beta-lactam without any tunicamycins or tunicamycin related compounds added” value (B. subtilis strain MW10) was 0.125 µg/mL.
With Cc1onc(-c2ccccc2)c1C(=O)N[C@@H]1C(=O)N2[C@@H]1SC(C)(C)[C@@H]2C(=O)O [oxacillin] the MIC (B. subtilis strain MW10; Bacillus subtilis, MW10, read-out: MIC of oxacillin only) was 0.125 µg/mL and the “MIC of the beta-lactam without any tunicamycins or tunicamycin related compounds added” value (B. subtilis strain MW10) was 0.25 µg/mL.
In the case of CC1(C)S[C@@H]2[C@H](NC(=O)Cc3ccccc3)C(=O)N2[C@H]1C(=O)O [penicillin G], the “MIC of the beta-lactam without any tunicamycins or tunicamycin related compounds added” value (B. subtilis strain MW10) is reported as 0.025 µg/mL.
For C[C@H]1[C@@H](c2cc(C(F)(F)F)cc(C(F)(F)F)c2)OC(=O)N1C(=O)CCc1cncc2ccccc12 [tarocin A1], the “depletion of the cell wall teichoic acid polymer (in words)” value [2] is given as “complete depletion”.
With quinovosamycin the “toxicity to CHO cells (in words)” value [3] was “toxic”.
